Test results reported in the NIST ThermoML archive (doi:10.1016/j.jct.2005.04.015).

Assay: excess molar enthalpy (molar enthalpy of mixing); xn = mol fraction of the nth substance listed
Conditions: Liquid, Flow calorimetry

CCOC=O [ethyl methanoate] + CC(C)O
Conditions | excess molar enthalpy [kcal/mol]
298.15 K, 5000 kPa, x1 = 0.0498 | 0.0806
298.15 K, 5000 kPa, x1 = 0.0993 | 0.158
298.15 K, 5000 kPa, x1 = 0.1485 | 0.221
298.15 K, 5000 kPa, x1 = 0.2008 | 0.276
298.15 K, 5000 kPa, x1 = 0.2493 | 0.317
298.15 K, 5000 kPa, x1 = 0.3009 | 0.35
298.15 K, 5000 kPa, x1 = 0.3488 | 0.373
298.15 K, 5000 kPa, x1 = 0.3997 | 0.391
298.15 K, 5000 kPa, x1 = 0.4503 | 0.4
298.15 K, 5000 kPa, x1 = 0.5005 | 0.403
298.15 K, 5000 kPa, x1 = 0.5504 | 0.398
298.15 K, 5000 kPa, x1 = 0.5999 | 0.389
298.15 K, 5000 kPa, x1 = 0.6492 | 0.372
298.15 K, 5000 kPa, x1 = 0.7013 | 0.344
298.15 K, 5000 kPa, x1 = 0.7498 | 0.311
298.15 K, 5000 kPa, x1 = 0.8012 | 0.267
298.15 K, 5000 kPa, x1 = 0.8997 | 0.156
298.15 K, 5000 kPa, x1 = 0.95 | 0.0857
298.15 K, 10000 kPa, x1 = 0.0497 | 0.0741
298.15 K, 10000 kPa, x1 = 0.099 | 0.152
298.15 K, 10000 kPa, x1 = 0.1516 | 0.218
298.15 K, 10000 kPa, x1 = 0.2003 | 0.271
298.15 K, 10000 kPa, x1 = 0.2487 | 0.311
298.15 K, 10000 kPa, x1 = 0.3002 | 0.345
298.15 K, 10000 kPa, x1 = 0.3514 | 0.368
298.15 K, 10000 kPa, x1 = 0.3989 | 0.383
298.15 K, 10000 kPa, x1 = 0.4495 | 0.393
298.15 K, 10000 kPa, x1 = 0.4997 | 0.396
298.15 K, 10000 kPa, x1 = 0.5496 | 0.393
298.15 K, 10000 kPa, x1 = 0.5991 | 0.384
298.15 K, 10000 kPa, x1 = 0.6484 | 0.368
298.15 K, 10000 kPa, x1 = 0.7006 | 0.34
298.15 K, 10000 kPa, x1 = 0.7492 | 0.31
298.15 K, 10000 kPa, x1 = 0.8006 | 0.265
298.15 K, 10000 kPa, x1 = 0.8994 | 0.157
298.15 K, 10000 kPa, x1 = 0.9499 | 0.0864
308.15 K, 10000 kPa, x1 = 0.0487 | 0.0511
308.15 K, 10000 kPa, x1 = 0.1 | 0.139
308.15 K, 10000 kPa, x1 = 0.1511 | 0.211
308.15 K, 10000 kPa, x1 = 0.1988 | 0.267
308.15 K, 10000 kPa, x1 = 0.2492 | 0.313
308.15 K, 10000 kPa, x1 = 0.2993 | 0.351
308.15 K, 10000 kPa, x1 = 0.349 | 0.378
308.15 K, 10000 kPa, x1 = 0.4013 | 0.398
308.15 K, 10000 kPa, x1 = 0.4504 | 0.409
308.15 K, 10000 kPa, x1 = 0.4992 | 0.413
308.15 K, 10000 kPa, x1 = 0.5505 | 0.409
308.15 K, 10000 kPa, x1 = 0.5987 | 0.399
308.15 K, 10000 kPa, x1 = 0.6996 | 0.353
308.15 K, 10000 kPa, x1 = 0.7496 | 0.319
308.15 K, 10000 kPa, x1 = 0.7993 | 0.278
308.15 K, 10000 kPa, x1 = 0.8513 | 0.226
308.15 K, 10000 kPa, x1 = 0.9003 | 0.163
308.15 K, 10000 kPa, x1 = 0.949 | 0.0911
